# In US20210045385A1, “PYRIDAZINONE-SUBSTITUTED KETOXIMES AS HERBICIDES” (FMC Corporation, priority 2018, published 2021):
# What was measured:
# Format in all cases: in vivo
# [1] = system: barnyardgrass (Echinochloa crus-galli); assay: Test D flooded paddy test, visual plant response rating; conditions: 250 g ai/ha, scale 0 to 100 (0 no effect, 100 complete control), 13 to 15 d
# Summary of the method: (§1)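 Visual injury scores, 0 (no effect) to 100 (complete control), were assigned after 13 to 15 d in the greenhouse by comparison with controls. Test compounds had been added to paddy water covering soil by 3 cm at the 2-leaf stage.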
# [2] = system: duck salad (Heteranthera limosa); assay: as above; conditions: 250 g ai/ha, scale 0 to 100 (0 no effect, 100 complete control), 13 to 15 d
# Summary of the method: as §1
# rice (Oryza sativa) = assay: as above; conditions: 250 g ai/ha, scale 0 to 100 (0 no effect, 100 complete control), 13 to 15 d
# Summary of the method: as §1
# [3] = system: sedge umbrella (small-flower umbrella sedge, Cyperus difformis); assay: as above; conditions: 250 g ai/ha, scale 0 to 100 (0 no effect, 100 complete control), 13 to 15 d
# Summary of the method: as §1
# [4] = system: barnyardgrass (Echinochloa crus-galli); assay: Test C preemergence, visual plant response rating; conditions: Test C, 0 is no effect, 100 is complete control
# Summary of the method: (§2)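 Visual injury on a 0 (no effect) to 100 (complete control) scale versus untreated controls, scored approximately 10 d after treatment under greenhouse conditions. Treatments used surfactant-containing non-phytotoxic solvent formulations, sprayed onto loam–sand soil preemergence or onto one- to two-leaf plants 2–10 cm tall postemergence.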
# [5] = system: foxtail, giant (giant foxtail, Setaria faberi); assay: Test C preemergence, visual plant response rating; conditions: Test C, 0 is no effect, 100 is complete control
# Summary of the method: as §2
# [6] = system: pigweed (Amaranthus retroflexus); assay: Test C preemergence, visual plant response rating; conditions: Test C, 0 is no effect, 100 is complete control
# Summary of the method: as §2
# kochia (Bassia scoparia) [7] = assay: Test C preemergence, visual plant response rating; conditions: Test C, 0 is no effect, 100 is complete control
# Summary of the method: as §2
# [8] = system: ragweed (common ragweed, Ambrosia artemisiifolia); assay: Test C preemergence, visual plant response rating; conditions: Test C, 0 is no effect, 100 is complete control
# Summary of the method: as §2
# [9] = system: Italian ryegrass (Lolium mutiflorum); assay: Test C preemergence, visual plant response rating; conditions: Test C, 0 is no effect, 100 is complete control
# Summary of the method: as §2
# [10] = system: barnyardgrass (Echinochloa crus-galli); assay: Test C postemergence, visual plant response rating
# Summary of the method: as §2
# [11] = system: foxtail, giant (giant foxtail, Setaria faberi); assay: Test C postemergence, visual plant response rating
# Summary of the method: as §2
# corn (Zea mays) = assay: Test C postemergence, visual plant response rating
# Summary of the method: as §2
# [12] = system: pigweed (Amaranthus retroflexus); assay: Test C postemergence, visual plant response rating
# Summary of the method: as §2
# [13] = system: wheat (Triticum aestivum); assay: Test C postemergence, visual plant response rating
# Summary of the method: as §2
# kochia (Bassia scoparia) [14] = assay: Test C postemergence, visual plant response rating
# Summary of the method: as §2
# [15] = system: blackgrass (Alopecurus myosuroides); assay: Test C postemergence, visual plant response rating
# Summary of the method: as §2
# [16] = system: galium (catchweed bedstraw, Galium aparine); assay: Test C postemergence, visual plant response rating
# Summary of the method: as §2
# [17] = system: ragweed (common ragweed, Ambrosia artemisiifolia); assay: Test C postemergence, visual plant response rating
# Summary of the method: as §2
# [18] = system: Italian ryegrass (Lolium mutiflorum); assay: Test C postemergence, visual plant response rating
# Summary of the method: as §2
# [19] = Test C, postemergence, 125 g ai/ha
Compound,"Plant response rating, Barnyardgrass (Flood) [1]","Plant response rating, Ducksalad (Flood) [2]","Plant response rating, Rice (Flood) (rice (Oryza sativa))","Plant response rating, Sedge, Umbrella (Flood) [3]",Barnyardgrass plant response rating (0 to 100 scale) ([4]; 31 g ai/ha),Barnyardgrass plant response rating (0 to 100 scale) ([4]; 125 g ai/ha),"Foxtail, Giant plant response rating (0 to 100 scale) ([5]; 31 g ai/ha)","Foxtail, Giant plant response rating (0 to 100 scale) ([5]; 125 g ai/ha)",Pigweed plant response rating (0 to 100 scale) ([6]; 31 g ai/ha),Pigweed plant response rating (0 to 100 scale) ([6]; 125 g ai/ha),Kochia plant response rating (0 to 100 scale) (kochia (Bassia scoparia) [7]; 31 g ai/ha),Kochia plant response rating (0 to 100 scale) (kochia (Bassia scoparia) [7]; 125 g ai/ha),Ragweed plant response rating (0 to 100 scale) ([8]; 31 g ai/ha),Ragweed plant response rating (0 to 100 scale) ([8]; 125 g ai/ha),"Ryegrass, Italian plant response rating (0 to 100 scale) ([9]; 31 g ai/ha)","Ryegrass, Italian plant response rating (0 to 100 scale) ([9]; 125 g ai/ha)","Barnyardgrass plant response rating (0 to 100 scale) ([10]; Postemergence, 31 g ai/ha)","Barnyardgrass plant response rating (0 to 100 scale) [10, 19]","Foxtail, Giant plant response rating (0 to 100 scale) ([11]; Postemergence, 31 g ai/ha)","Foxtail, Giant plant response rating (0 to 100 scale) [11, 19]",other results
CCO/N=C(\c1c(O)c(C)nn(C)c1=O)c1cccc2cc(Cl)ccc12 [Compound 273],90,95,85,95,40,80,80,90,90,90,0,40,20,20,0,40,40,80,100,100,"Corn plant response rating (0 to 100 scale) (corn (Zea mays); Postemergence, 31 g ai/ha): 0; Corn plant response rating (0 to 100 scale) (corn (Zea mays); [19]): 30; Pigweed plant response rating (0 to 100 scale) ([12]; Postemergence, 31 g ai/ha): 90; Pigweed plant response rating (0 to 100 scale) [12, 19]: 100; Wheat plant response rating (0 to 100 scale) ([13]; Postemergence, 31 g ai/ha): 0; Wheat plant response rating (0 to 100 scale) [13, 19]: 0; Kochia plant response rating (0 to 100 scale) (kochia (Bassia scoparia) [14]; Postemergence, 31 g ai/ha): 40; Kochia plant response rating (0 to 100 scale) (kochia (Bassia scoparia) [14]; [19]): 60; Blackgrass plant response rating (0 to 100 scale) ([15]; Postemergence, 31 g ai/ha): 80; Blackgrass plant response rating (0 to 100 scale) [15, 19]: 90; Galium plant response rating (0 to 100 scale) ([16]; Postemergence, 31 g ai/ha): 100; Galium plant response rating (0 to 100 scale) [16, 19]: 100; Ragweed plant response rating (0 to 100 scale) ([17]; Postemergence, 31 g ai/ha): 90; Ragweed plant response rating (0 to 100 scale) [17, 19]: 100; Ryegrass, Italian plant response rating (0 to 100 scale) ([18]; Postemergence, 31 g ai/ha): 10; Ryegrass, Italian plant response rating (0 to 100 scale) [18, 19]: 60"
C#CCO/N=C(/c1cccc(Br)c1)c1c(O)c(C)nn(C)c1=O [Compound 277],0,0,0,0,0,30,10,30,10,70,0,90,20,80,10,100,20,60,10,60,"Corn plant response rating (0 to 100 scale) (corn (Zea mays); Postemergence, 31 g ai/ha): 10; Corn plant response rating (0 to 100 scale) (corn (Zea mays); [19]): 30; Pigweed plant response rating (0 to 100 scale) ([12]; Postemergence, 31 g ai/ha): 40; Pigweed plant response rating (0 to 100 scale) [12, 19]: 60; Wheat plant response rating (0 to 100 scale) ([13]; Postemergence, 31 g ai/ha): 30; Wheat plant response rating (0 to 100 scale) [13, 19]: 70; Kochia plant response rating (0 to 100 scale) (kochia (Bassia scoparia) [14]; Postemergence, 31 g ai/ha): 50; Kochia plant response rating (0 to 100 scale) (kochia (Bassia scoparia) [14]; [19]): 70; Blackgrass plant response rating (0 to 100 scale) ([15]; Postemergence, 31 g ai/ha): 30; Blackgrass plant response rating (0 to 100 scale) [15, 19]: 80; Galium plant response rating (0 to 100 scale) ([16]; Postemergence, 31 g ai/ha): 70; Galium plant response rating (0 to 100 scale) [16, 19]: 80; Ragweed plant response rating (0 to 100 scale) ([17]; Postemergence, 31 g ai/ha): 40; Ragweed plant response rating (0 to 100 scale) [17, 19]: 90; Ryegrass, Italian plant response rating (0 to 100 scale) ([18]; Postemergence, 31 g ai/ha): 40; Ryegrass, Italian plant response rating (0 to 100 scale) [18, 19]: 70"
